Here are results for 2 compounds from patent publication US5763404A, “Methods for using LHRH antagonists with low histamine release” (priority 1995, dated 1998).

One data set has as its system 26 days old female rats. Nature of the data set: oral activity: serum LH and FSH after agonist [D-Qal^6]-LHRH. Type of data set: in vivo, rat. The following applies: for LH: 2 hours before 10 ng agonist; for FSH / Serum LH: -2 hr, agonist 10 ng sc, +2 hours. As to the method: For the determination of duration of action, the antagonist was administered s.c. or orally to 26 days old female rats at a specific time before administration of the agonist, [D-Qal^6 ]-LHRH. The serum levels of rat luteinizing hormone (LH) and rat follicle stimulating hormone (FSH) were then measured 2 hours after the agonist administration by RIA. The oral administration was done through force-feeding with feeding tubes.

Another data set relates to rats. The following applies: reported in ref. 16, cited from earlier work.
The subject of data set [1] is anaesthesized rats. The following applies: From Reference 1; cited from earlier work.
For data set [2], the system named is anaesthesized rats. Kind of data set: wheal test, intradermal injection. The class given is in vivo, rat. Also noted: Wheal (wheal response): unit not given here. The following applies: Table XIV and text, unit not given. Summed up:
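Anaesthetized rats given intradermal injection of 10 ug peptide in 100 ul saline; area of the wheal calculated from its diameter.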

Where two headings read alike, the source gives them in different places. Non-standard residues stand in square brackets, D forms with d. Residues, ends and D or L forms follow the SMILES beside them. *: point of attachment. dPhe(4-Cl) = N[C@H](Cc1ccc(Cl)cc1)C(=O)O; d2Nal = N[C@H](Cc1ccc2ccccc2c1)C(=O)O; Lys(iPr) = CC(C)NCCCC[C@H](N)C(=O)O; d3Pal = N[C@H](Cc1cccnc1)C(=O)O; Picolinoyl = O=C(c1ccccn1)*

With “[N-Ac-D-pClPhe^1,2,D-Trp^3,D-Arg^6,D-Ala^10 ]-LHRH [VIII-25]”, the LH in the data set with 26 days old female rats (oral 30 ug) is 39 ± 6 ng/mL; with 26 days old female rats (oral 100 ug) it was 26 ± 7 ng/mL. Moreover, the FSH in the data set on 26 days old female rats (oral in water 10 μg) worked out at 1794 ± 329 ng/mL; in the data set with 26 days old female rats (oral in water 30 μg), 1470 ± 190 ng/mL; in the data set with 26 days old female rats (oral in water 100 μg), 1161 ± 277 ng/mL. Also, the “Serum LH” value in the data set on 26 days old female rats (oral in water 10 μg) came to 59 ± 11 ng/mL; in the data set on 26 days old female rats (oral in water 30 μg), 39 ± 6 ng/mL; in the data set on 26 days old female rats (oral in water 100 μg), 26 ± 7 ng/mL. Besides, the rats ovulated/total rats in the data set with rats (oral dose 500 ug) is 9/11; in the data set on rats (oral dose 1000 ug), 4/11; with rats (oral dose 2000 ug), 0/11.

Regarding `CC(=O)N[C@H](Cc1ccc2ccccc2c1)C(=O)N[C@H](Cc1ccc(Cl)cc1)C(=O)N[C@H](Cc1cccnc1)C(=O)N[C@@H](CO)C(=O)N[C@@H](CCCCNC(=O)c1ccccn1)C(=O)N[C@H](CCCCNC(=O)c1ccccn1)C(=O)N[C@@H](CC(C)C)C(=O)N[C@@H](CCCCNC(C)C)C(=O)N1CCC[C@H]1C(=O)N[C@H](C)C(N)=O` [IBR 25147, [N-Ac-D-2-Nal^1,D-pClPhe^2,D-3-Pal^3,PicLys^5,D-PicLys^6, ILys^8,D-Ala^10]-LHRH] (Ac-[d2Nal][dPhe(4-Cl)][d3Pal]SK(Picolinoyl)[dK](Picolinoyl)L[Lys(iPr)]P[dA]-NH2), in the data set with anaesthesized rats [1], the “Wheal Area” value is 123 ± 0 mm^2 /10 μg. Besides, the “Wheal (wheal response)” value in the data set on anaesthesized rats [2] is 123.0.
